Measurements reported in PubChem BioAssay AID1918936 (Molecular Pharmacology Branch, DTP, NCI, 2023).
pIC50: −log10 of the molar value. Where “and” joins values, the source holds several entries; their conditions need not be identical. Identical values can stand only once. One block for each compound: values may come before it.

Test system: 349418-098-R-PDC complex spheroid viability
Experiment: Anticancer human tumor 349418-098-R-PDC patient-derived lung adenocarcinoma cell line growth inhibition
Settings: for viability, T/C: stronger effect = lower value
From the text: Multicellular complex tumor spheroid response to LSD1 Inhibitor Iadademstat in combination with a variety of drugs and investigational agents in selected tumor cell lines
The current study was undertaken to assess response to LSD1 inhibitors in combination with standard-of-care drugs and investigational agents in solid tumor complex spheroid models as well as in the K-562 leukemia. Complex spheroids include a stromal component modeled by human endothelial cells (HUVEC) and fibroblasts modeled by human mesenchymal stem cells (MSCs). The concentration ranges selected for each drug and investigational agent were based upon clinically achievable concentrations if the clinical Cmax of the agent was known.
Compounds. The drugs and investigational agents used in this study are listed on Table 1. All of the agents used, including staurosporine (NSC755774) and gemcitabine (NSC613327), were obtained from the Developmental Therapeutics Program, NCI. FDA-approved anticancer drugs are available from the NCI at http://dtp.nci.nih.gov/branches/dscb/oncology_drugset_explanation.html. Drugs and investigational agents were >95% pure by proton nuclear magnetic resonance (NMR) and liquid chromatography/mass spectrometry (LC/MS). Stock solutions were prepared at 400x in DMSO, stored at -70 degrees C, and diluted in fresh medium prior to their use. The final concentration of DMSO in cell culture wells never exceeded 0.25% (v/v). The FDA-approved anticancer drug set is available from the Developmental Therapeutics Program at https://dtp.cancer.gov/organization/dscb/obtaining/available_plates.htm. All drugs and investigational agents were tested over a range starting from a high concentration at or near the clinical Cmax and decreasing in half-log increments. If the clinical Cmax for an agent had not been determined, the highest concentration tested was 10 microM.
Cell Lines. The patient-derived cancer cell (PDC) lines: 292921-168-R-J2-PDC, K24384-001-R-PDC, and 521955-158-R2-J5-PDC pancreatic carcinomas, 556581-035-R-J1 ovarian carcinoma, 324938-238-R-J1-PDC, 855422-203-R-J1-PDC and 883617-216-R-J1-PDC urothelial bladder carcinomas, 743489-274-T-PDC renal cell carcinoma, 138582-R-J1 Merkel cell tumor, K60290-347-R-J1 and K57222-313-R-J1-PDC glioblastomas, 653999-131-R-J2-PDC, LG0703-F948-PDC, and 349418-098-R-PDC non-small cell lung carcinomas, 885512-296-R-J2-PDC, 171881-019-R-J1-PDC breast carcinomas and 186277-243-T-J2-PDC and 233499-124-R-J2-PDC colon carcinomas were obtained from the NCI Patient-Derived Models Repository (PDMR, https://pdmr.cancer.gov). The established cell lines NCI/ADR-RES (RRID:CVCL_14520 and OVCAR-5 (RRID:CVCL_1628) ovarian carcinomas, 786-O (RRID:CVCL_1051) and A498 (RRID:CVCL_A498) renal cell carcinoma, NCI-H211 (ATCC, cat. CRL-5824; RRID:CVCL_1529), NCI-H196 (ATCC, cat. CRL-5823, RRID:CVCL_1509), SW 1271 (ATCC, cat. CRL-2177, RRID:CVCL_1716) and NCI-H1876 (ATCC, cat. CRL-5902, RRID:CVCL_1503) small cell lung carcinomas, MDA-MB-231 (RRID:CVCL_0062) and MDA-MB-468 (RRID:CVCL_0419)breast carcinomas (10-12). Pooled donor human umbilical vein endothelial cells (HUVEC, Lonza, cat. CC-2519) and human mesenchymal stem cells (hMSC, Lonza, cat. PT-2501) were purchased from Lonza (Walkersville, MD).
Cell Culture. All cells were maintained in an incubator at 37 degrees C and 5% CO2 with 95% humidity. The PDC lines were cultured according to standard operating procedures established by the NCI PDMR (https://pdmr.cancer.gov). Briefly all PDCs were thawed and cultured in Matrigel-coated flasks prepared with a working solution of 1X Ham's F-12 nutrient mix, without supplementation (Invitrogen, Waltham, MA, cat. 11765054), 100 U/mL penicillin-streptomycin (Invitrogen, cat. 15140122), and 2.5% Matrigel (Corning Inc., Corning, NY, cat. 354248) for the first three passages. […]

[1] = curve of first compound, second compound 0.1 µM
[2] = curve of first compound, second compound 0.316 µM
[3] = curve of first compound, second compound 1 µM
[4] = curve of first compound, second compound 3.16 µM
[5] = curve of first compound, second compound 10 µM
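Also: spheroids exposed to agents for seven days before readout.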
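For viability, T/C in this document: 100% = DMSO vehicle control wells.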

SMILES: O=C(C=Cn1cnc(-c2cc(C(F)(F)F)cc(C(F)(F)F)c2)n1)NNc1cnccn1 + NC1CC1c1ccc(-c2cccc(O)c2)cc1
pIC50 [1]: > 8.50 | pIC50 [2]: > 8.50 | pIC50 [3]: > 8.50 | pIC50 [4]: > 8.50 | pIC50 [5]: > 8.50 | viability, T/C (second compound 0.1 µM, first compound 0.00316 µM): 21.7% | viability, T/C (second compound 0.1 µM, first compound 0.01 µM): 13.6% | viability, T/C (second compound 0.1 µM, first compound 0.0316 µM): 8.69% | viability, T/C (second compound 0.1 µM, first compound 0.1 µM): 4.58% | viability, T/C (second compound 0.1 µM, first compound 0.316 µM): 3.21% | viability, T/C (second compound 0.1 µM, first compound 1 µM): 2.82% | viability, T/C (second compound 0.316 µM, first compound 0.00316 µM): 23% | viability, T/C (second compound 0.316 µM, first compound 0.01 µM): 13.6% | viability, T/C (second compound 0.316 µM, first compound 0.0316 µM): 7.36% | viability, T/C (second compound 0.316 µM, first compound 0.1 µM): 4.45% | viability, T/C (second compound 0.316 µM, first compound 0.316 µM): 3.04% | viability, T/C (second compound 0.316 µM, first compound 1 µM): 2.89% | viability, T/C (second compound 1 µM, first compound 0.00316 µM): 21.3% | viability, T/C (second compound 1 µM, first compound 0.01 µM): 11.7% | viability, T/C (second compound 1 µM, first compound 0.0316 µM): 7.13% | viability, T/C (second compound 1 µM, first compound 0.1 µM): 3.94% | viability, T/C (second compound 1 µM, first compound 0.316 µM): 2.88% | viability, T/C (second compound 1 µM, first compound 1 µM): 2.59% | viability, T/C (second compound 3.16 µM, first compound 0.00316 µM): 22.3% | viability, T/C (second compound 3.16 µM, first compound 0.01 µM): 16.3% | viability, T/C (second compound 3.16 µM, first compound 0.0316 µM): 7.41% | viability, T/C (second compound 3.16 µM, first compound 0.1 µM): 5% | viability, T/C (second compound 3.16 µM, first compound 0.316 µM): 3.23% | viability, T/C (second compound 3.16 µM, first compound 1 µM): 2.75% | viability, T/C (second compound 10 µM, first compound 0.00316 µM): 11.5% | viability, T/C (second compound 10 µM, first compound 0.01 µM): 11.2% | viability, T/C (second compound 10 µM, first compound 0.0316 µM): 7.71% | viability, T/C (second compound 10 µM, first compound 0.1 µM): 5.06% | viability, T/C (second compound 10 µM, first compound 0.316 µM): 2.95% | viability, T/C (second compound 10 µM, first compound 1 µM): 2.62%

SMILES: CCc1c2c(nc3ccc(O)cc13)-c1cc3c(c(=O)n1C2)COC(=O)[C@]3(O)CC + NC1CC1c1ccc(-c2cccc(O)c2)cc1
pIC50 [1]: > 9.02 | pIC50 [2]: > 9.02 | pIC50 [3]: > 9.02 | pIC50 [4]: > 9.02 | pIC50 [5]: > 9.02 | viability, T/C (second compound 0.1 µM, first compound 0.000949 µM): 3.35% | viability, T/C (second compound 0.1 µM, first compound 0.003 µM): 2.46% | viability, T/C (second compound 0.1 µM, first compound 0.00949 µM): 1.32% | viability, T/C (second compound 0.1 µM, first compound 0.03 µM): 1.41% | viability, T/C (second compound 0.1 µM, first compound 0.0949 µM): 1.92% | viability, T/C (second compound 0.1 µM, first compound 0.3 µM): 1.96% | viability, T/C (second compound 0.316 µM, first compound 0.000949 µM): 3.19% | viability, T/C (second compound 0.316 µM, first compound 0.003 µM): 2.09% | viability, T/C (second compound 0.316 µM, first compound 0.00949 µM): 1.26% | viability, T/C (second compound 0.316 µM, first compound 0.03 µM): 1.31% | viability, T/C (second compound 0.316 µM, first compound 0.0949 µM): 1.59% | viability, T/C (second compound 0.316 µM, first compound 0.3 µM): 1.98% | viability, T/C (second compound 1 µM, first compound 0.000949 µM): 3.23% | viability, T/C (second compound 1 µM, first compound 0.003 µM): 2.09% | viability, T/C (second compound 1 µM, first compound 0.00949 µM): 1.23% | viability, T/C (second compound 1 µM, first compound 0.03 µM): 1.48% | viability, T/C (second compound 1 µM, first compound 0.0949 µM): 1.67% | viability, T/C (second compound 1 µM, first compound 0.3 µM): 1.92% | viability, T/C (second compound 3.16 µM, first compound 0.000949 µM): 3.45% | viability, T/C (second compound 3.16 µM, first compound 0.003 µM): 2.17% | viability, T/C (second compound 3.16 µM, first compound 0.00949 µM): 1.37% | viability, T/C (second compound 3.16 µM, first compound 0.03 µM): 1.52% | viability, T/C (second compound 3.16 µM, first compound 0.0949 µM): 1.8% | viability, T/C (second compound 3.16 µM, first compound 0.3 µM): 1.56% | viability, T/C (second compound 10 µM, first compound 0.000949 µM): 3.42% | viability, T/C (second compound 10 µM, first compound 0.003 µM): 1.99% | viability, T/C (second compound 10 µM, first compound 0.00949 µM): 1.52% | viability, T/C (second compound 10 µM, first compound 0.03 µM): 1.31% | viability, T/C (second compound 10 µM, first compound 0.0949 µM): 1.59% | viability, T/C (second compound 10 µM, first compound 0.3 µM): 1.47%

pIC50 (curve of compound): < 5.52 and 6.46
SMILES: CCN(c1cc(-c2ccc(CN3CCOCC3)cc2)cc(C(=O)NCc2c(C)cc(C)[nH]c2=O)c1C)C1CCOCC1
viability, T/C (compound 0.00949 µM): 91.2% and 96.2% | viability, T/C (compound 0.03 µM): 100% and 97.8% | viability, T/C (compound 0.0949 µM): 93.4% and 87.5% | viability, T/C (compound 0.3 µM): 91.6% and 50.8% | viability, T/C (compound 0.949 µM): 76.7% and 26.2% | viability, T/C (compound 3 µM): 68.7% and 10%
